Results published in ChEMBL document CHEMBL4229569, “Structure-Based Design of 1-Heteroaryl-1,3-propanediamine Derivatives as a Novel Series of CC-Chemokine Receptor 5 Antagonists” (J Med Chem, 2018).

Experiments:
[1] = system: Human immunodeficiency virus 1; assay: microbe, parasite or virus in culture; conditions: Human immunodeficiency virus 1, Ba-L, HOS, 120 h
Description: Antiviral activity against CCR5-dependent HIV1 Ba-L infected in human HOS cells assessed as reduction in virus infection measured after 5 days by luciferase reporter gene assay

Cytochrome P450 2D6 = Cytochrome P450 2D6 (Homo sapiens, UniProt P10635); assay: Inhibition of CYP2D6 (unknown origin); type: ADME
[2] = Cmax in Sprague-Dawley rat at 10 mg/kg, iv by LC-MS/MS analysis; type: ADME, organism-based; set-up: dose 10 mg/kg, route intravenous; conditions: in vivo
[3] = Tmax in dog at 15 mg/kg, po by LC-MS/MS analysis; type: ADME, organism-based, Canis lupus familiaris; conditions: in vivo
[4] = Oral bioavailability in dog at 15 mg/kg by LC-MS/MS analysis; type: ADME, organism-based, Canis lupus familiaris; conditions: in vivo
[5] = system: Human immunodeficiency virus 1; assay: microbe, parasite or virus in culture; conditions: Human immunodeficiency virus 1, SF162, HOS, 120 h
Description: Antiviral activity against CCR5-dependent HIV1 SF162 infected in human HOS cells assessed as reduction in virus infection measured after 5 days by luciferase reporter gene assay

[6] = Half life in Sprague-Dawley rat at 10 mg/kg, iv by LC-MS/MS analysis; type: ADME, organism-based; conditions: in vivo
[7] = Half life in dog at 3 mg/kg, iv by LC-MS/MS analysis; type: ADME, organism-based, Canis lupus familiaris; conditions: in vivo
[8] = system: Human immunodeficiency virus 1; assay: microbe, parasite or virus in culture; conditions: Human immunodeficiency virus 1, Ba-L, PBMC, 168 h
Description: Antiviral activity against CCR5-dependent HIV1 Ba-L infected in human PBMC assessed as reduction in virus infection measured 7 days by luciferase reporter gene assay

Cytochrome P450 2C19 = Cytochrome P450 2C19 (Homo sapiens, UniProt P33261); assay: Inhibition of CYP2C19 (unknown origin); type: ADME
[9] = system: Human immunodeficiency virus 1; assay: microbe, parasite or virus in culture; conditions: Human immunodeficiency virus 1, KM018, PBMC, 168 h
Description: Antiviral activity against CCR5-dependent HIV1 KM018 infected in human PBMC assessed as reduction in virus infection measured after 7 days by luciferase reporter gene assay

[10] = AUC (0 to infinity) in Sprague-Dawley rat at 10 mg/kg, iv by LC-MS/MS analysis; type: ADME, organism-based; set-up: dose 10 mg/kg, time infinity, route intravenous; conditions: in vivo
[11] = AUC (0 to infinity) in dog at 3 mg/kg, iv by LC-MS/MS analysis; type: ADME, organism-based, Canis lupus familiaris; set-up: dose 3 mg/kg, route intravenous, time infinity; conditions: in vivo
[12] = target: Voltage-gated inwardly rectifying potassium channel KCNH2 (Homo sapiens, UniProt Q12809); assay: Inhibition of human ERG expressed in CHO cells at holding potential of -80 mV after 60 secs by patch clamp assay; type: cell-based
[13] = Half life in dog at 15 mg/kg, po by LC-MS/MS analysis; type: ADME, organism-based, Canis lupus familiaris; conditions: in vivo
Cytochrome P450 3A4 [14] = target: T1, Cytochrome P450 3A4 (Homo sapiens, UniProt P08684); assay: Inhibition of CYP3A4 (unknown origin) using midazolam as substrate; type: ADME
[15] = Clearance in dog at 3 mg/kg, iv by LC-MS/MS analysis; type: ADME, organism-based, Canis lupus familiaris; conditions: in vivo
[16] = Oral bioavailability in Sprague-Dawley rat at 20 mg/kg by LC-MS/MS analysis; type: ADME, organism-based; conditions: in vivo
[17] = Cmax in dog at 15 mg/kg, po by LC-MS/MS analysis; type: ADME, organism-based, Canis lupus familiaris; set-up: dose 15 mg/kg, route oral; conditions: in vivo
[18] = Cmax in Sprague-Dawley rat at 20 mg/kg, po by LC-MS/MS analysis; type: ADME, organism-based; set-up: dose 20 mg/kg, route oral; conditions: in vivo
in vitro [19] = conditions: human, TZM-bl cells
Description: Therapeutic index, ratio of CC50 for human TZM-bl cells to EC50 for CCR5-dependent HIV1 SF162 infected in human TZM-bl cells

[20] = AUC (0 to infinity) in dog at 15 mg/kg, po by LC-MS/MS analysis; type: ADME, organism-based, Canis lupus familiaris; set-up: dose 15 mg/kg, time infinity, route oral; conditions: in vivo
[21] = MRT in Sprague-Dawley rat at 20 mg/kg, po by LC-MS/MS analysis; type: ADME, organism-based; conditions: in vivo
Cytochrome P450 3A4 [22] = target: T1, Cytochrome P450 3A4; assay: Inhibition of CYP3A4 (unknown origin) using testosterone as substrate; type: ADME
in vitro [23] = conditions: human, PBMC
Description: Therapeutic index, ratio of CC50 for human PBMC to IC50 for CCR5-dependent HIV1 KM018 infected in human PBMC

in vitro [24] = conditions: human, PM1 cells
Description: Therapeutic index, ratio of CC50 for human PM1 cells to IC50 for CCR5-dependent HIV1 Ba-L infected in human PM1 cells

[25] = system: Human immunodeficiency virus 1; assay: microbe, parasite or virus in culture; conditions: Human immunodeficiency virus 1, SF162, TZM-bl, 48 h
Description: Antiviral activity against CCR5-dependent HIV1 SF162 infected in human TZM-bl cells assessed as reduction in virus infection measured after 48 hrs post infection by luciferase reporter gene assay

[26] = MRT in dog at 15 mg/kg, po by LC-MS/MS analysis; type: ADME, organism-based, Canis lupus familiaris; conditions: in vivo
[27] = AUC (0 to infinity) in Sprague-Dawley rat at 20 mg/kg, po by LC-MS/MS analysis; type: ADME, organism-based; set-up: dose 20 mg/kg, route oral, time infinity; conditions: in vivo
[28] = system: Human immunodeficiency virus 1; assay: microbe, parasite or virus in culture; conditions: Human immunodeficiency virus 1, SF162, PBMC, 168 h
Description: Antiviral activity against CCR5-dependent HIV1 SF162 infected in human PBMC assessed as reduction in virus infection measured after 7 days by luciferase reporter gene assay

[29] = MRT in Sprague-Dawley rat at 10 mg/kg, iv by LC-MS/MS analysis; type: ADME, organism-based; conditions: in vivo
in vitro [30] = conditions: human, PBMC; remark: listed apart in the source
Description: Therapeutic index, ratio of CC50 for human PBMC to IC50 for CCR5-dependent HIV1 SF162 infected in human PBMC cells

[31] = Tmax in Sprague-Dawley rat at 10 mg/kg, iv by LC-MS/MS analysis; type: ADME, organism-based; conditions: in vivo
in vitro [32] = conditions: human, HOS cells
Description: Therapeutic index, ratio of CC50 for human HOS cells to IC50 for CCR5-dependent HIV1 Ba-L infected in human HOS cells

in vitro [33] = conditions: human, PBMC; remark: listed apart in the source
Description: Therapeutic index, ratio of CC50 for human PBMC to IC50 for CCR5-dependent HIV1 Ba-L infected in human PBMC

[34] = Cytotoxicity against human TZM-bl cells after 48 hrs by MTT assay; type: cell-based
[35] = Half life in Sprague-Dawley rat at 20 mg/kg, po by LC-MS/MS analysis; type: ADME, organism-based; conditions: in vivo
[36] = target: C-C chemokine receptor type 5 (Homo sapiens, UniProt P51681); assay: Antagonist activity at CCR5 (unknown origin) expressed in HEK293 cells co-expressing Galpha16 assessed as inhibition of RANTES-induced calcium flux preincubated for 10 mins followed by RANTES addition by fluo-4AM-based fluorescence assay; type: functional, cell-based
Cytochrome P450 1A2 = target: T2, Cytochrome P450 1A2 (Homo sapiens, UniProt P05177); assay: Inhibition of CYP1A2 (unknown origin); type: ADME
T2 sequence (P05177 whole entry): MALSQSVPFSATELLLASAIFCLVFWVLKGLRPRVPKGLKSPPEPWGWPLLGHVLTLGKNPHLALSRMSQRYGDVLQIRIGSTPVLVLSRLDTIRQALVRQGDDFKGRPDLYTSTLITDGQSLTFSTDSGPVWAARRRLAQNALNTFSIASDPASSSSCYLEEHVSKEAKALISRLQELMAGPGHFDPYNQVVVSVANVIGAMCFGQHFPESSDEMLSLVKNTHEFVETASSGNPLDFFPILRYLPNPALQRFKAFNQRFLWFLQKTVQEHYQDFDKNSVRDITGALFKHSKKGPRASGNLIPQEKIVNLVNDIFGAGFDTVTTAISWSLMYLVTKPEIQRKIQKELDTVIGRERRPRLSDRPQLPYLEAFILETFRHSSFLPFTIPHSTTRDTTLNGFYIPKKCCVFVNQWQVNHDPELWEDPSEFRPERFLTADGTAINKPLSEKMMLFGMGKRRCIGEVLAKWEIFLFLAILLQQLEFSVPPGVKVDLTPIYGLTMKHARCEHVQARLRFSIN

in vitro [37] = conditions: human, HOS cells; remark: listed apart in the source
Description: Therapeutic index, ratio of CC50 for human HOS cells to IC50 for CCR5-dependent HIV1 SF162 infected in human HOS cells

[38] = system: Human immunodeficiency virus 1; assay: microbe, parasite or virus in culture; conditions: Human immunodeficiency virus 1, Ba-L, PM1, 120 h
Description: Antiviral activity against CCR5-dependent HIV1 Ba-L infected in human PM1 cells assessed as reduction in virus infection measured after 5 days by luciferase reporter gene assay

[39] = Clearance in Sprague-Dawley rat at 10 mg/kg, iv by LC-MS/MS analysis; type: ADME, organism-based; conditions: in vivo
[40] = Tmax in Sprague-Dawley rat at 20 mg/kg, po by LC-MS/MS analysis; type: ADME, organism-based; conditions: in vivo
[41] = MRT in dog at 3 mg/kg, iv by LC-MS/MS analysis; type: ADME, organism-based, Canis lupus familiaris; conditions: in vivo
Cytochrome P450 2C9 = Cytochrome P450 2C9 (Homo sapiens, UniProt P11712); assay: Inhibition of CYP2C9 (unknown origin); type: ADME
Chain of Cytochrome P450 2C9 (P11712 whole entry): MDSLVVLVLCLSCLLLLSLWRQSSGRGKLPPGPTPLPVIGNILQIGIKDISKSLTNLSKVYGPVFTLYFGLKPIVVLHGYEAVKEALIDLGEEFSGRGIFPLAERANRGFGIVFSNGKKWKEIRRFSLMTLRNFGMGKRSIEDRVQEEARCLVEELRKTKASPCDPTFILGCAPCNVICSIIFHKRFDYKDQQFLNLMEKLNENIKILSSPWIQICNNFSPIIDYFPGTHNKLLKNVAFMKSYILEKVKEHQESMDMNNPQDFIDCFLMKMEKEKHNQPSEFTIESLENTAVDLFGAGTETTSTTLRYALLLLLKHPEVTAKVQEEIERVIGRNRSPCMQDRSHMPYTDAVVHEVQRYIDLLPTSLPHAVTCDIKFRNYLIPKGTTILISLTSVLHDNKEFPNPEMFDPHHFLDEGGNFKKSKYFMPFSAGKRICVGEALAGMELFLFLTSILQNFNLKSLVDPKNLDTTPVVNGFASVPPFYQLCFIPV

T1 sequence (P08684 whole entry): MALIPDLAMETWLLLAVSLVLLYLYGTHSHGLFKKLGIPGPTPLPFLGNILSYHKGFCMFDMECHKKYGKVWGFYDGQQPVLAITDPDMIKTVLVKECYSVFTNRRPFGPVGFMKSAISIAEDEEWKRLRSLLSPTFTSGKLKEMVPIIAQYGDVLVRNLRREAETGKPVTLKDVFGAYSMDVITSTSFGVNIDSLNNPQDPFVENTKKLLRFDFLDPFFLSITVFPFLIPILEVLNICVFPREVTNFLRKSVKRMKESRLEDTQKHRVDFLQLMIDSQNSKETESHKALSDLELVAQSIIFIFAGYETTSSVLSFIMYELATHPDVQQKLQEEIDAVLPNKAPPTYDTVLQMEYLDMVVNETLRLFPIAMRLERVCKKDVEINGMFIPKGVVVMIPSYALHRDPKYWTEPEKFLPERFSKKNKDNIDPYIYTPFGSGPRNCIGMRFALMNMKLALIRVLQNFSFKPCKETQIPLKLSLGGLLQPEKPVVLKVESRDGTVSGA
Chain of C-C chemokine receptor type 5 (P51681 whole entry): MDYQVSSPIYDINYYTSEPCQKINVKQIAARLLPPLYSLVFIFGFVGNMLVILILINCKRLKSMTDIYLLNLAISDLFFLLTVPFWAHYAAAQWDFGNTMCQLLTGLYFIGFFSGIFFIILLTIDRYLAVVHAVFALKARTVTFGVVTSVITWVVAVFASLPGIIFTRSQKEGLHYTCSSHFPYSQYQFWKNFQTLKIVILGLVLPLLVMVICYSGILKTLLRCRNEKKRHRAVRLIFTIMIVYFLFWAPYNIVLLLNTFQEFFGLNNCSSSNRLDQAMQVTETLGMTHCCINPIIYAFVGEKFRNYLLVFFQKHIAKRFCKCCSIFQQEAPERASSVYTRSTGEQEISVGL
Chain of Voltage-gated inwardly rectifying potassium channel KCNH2 (Q12809 whole entry): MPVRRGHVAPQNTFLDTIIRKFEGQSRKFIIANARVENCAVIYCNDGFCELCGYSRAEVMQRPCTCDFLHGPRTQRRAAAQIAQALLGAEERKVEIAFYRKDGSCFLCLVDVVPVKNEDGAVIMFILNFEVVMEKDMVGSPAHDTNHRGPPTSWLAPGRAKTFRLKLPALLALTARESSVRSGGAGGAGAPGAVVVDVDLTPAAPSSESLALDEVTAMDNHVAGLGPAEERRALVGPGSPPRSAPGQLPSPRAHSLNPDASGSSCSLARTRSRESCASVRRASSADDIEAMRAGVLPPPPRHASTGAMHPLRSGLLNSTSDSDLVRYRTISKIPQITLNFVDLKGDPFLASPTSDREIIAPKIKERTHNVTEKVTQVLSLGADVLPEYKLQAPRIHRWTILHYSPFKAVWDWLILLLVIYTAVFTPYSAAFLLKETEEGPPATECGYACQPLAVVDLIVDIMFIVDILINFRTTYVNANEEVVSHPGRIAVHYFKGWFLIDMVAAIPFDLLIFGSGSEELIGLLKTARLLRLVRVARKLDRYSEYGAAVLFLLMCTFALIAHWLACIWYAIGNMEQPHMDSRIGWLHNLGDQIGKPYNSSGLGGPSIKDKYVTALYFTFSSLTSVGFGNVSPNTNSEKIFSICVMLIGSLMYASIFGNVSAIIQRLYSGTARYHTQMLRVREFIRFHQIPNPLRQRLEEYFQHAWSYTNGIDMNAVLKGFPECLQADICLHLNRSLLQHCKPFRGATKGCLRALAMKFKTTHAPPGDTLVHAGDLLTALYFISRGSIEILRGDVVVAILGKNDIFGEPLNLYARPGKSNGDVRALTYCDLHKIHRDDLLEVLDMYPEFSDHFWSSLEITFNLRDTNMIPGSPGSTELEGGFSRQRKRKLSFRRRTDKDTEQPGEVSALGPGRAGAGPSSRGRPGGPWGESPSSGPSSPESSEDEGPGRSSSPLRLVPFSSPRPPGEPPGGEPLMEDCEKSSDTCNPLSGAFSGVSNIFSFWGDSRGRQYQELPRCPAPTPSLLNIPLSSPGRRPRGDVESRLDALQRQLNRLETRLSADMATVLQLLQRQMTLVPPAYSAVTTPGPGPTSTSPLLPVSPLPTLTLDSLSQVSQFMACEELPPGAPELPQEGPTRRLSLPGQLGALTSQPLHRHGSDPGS
Chain of Cytochrome P450 2C19 (P33261 whole entry): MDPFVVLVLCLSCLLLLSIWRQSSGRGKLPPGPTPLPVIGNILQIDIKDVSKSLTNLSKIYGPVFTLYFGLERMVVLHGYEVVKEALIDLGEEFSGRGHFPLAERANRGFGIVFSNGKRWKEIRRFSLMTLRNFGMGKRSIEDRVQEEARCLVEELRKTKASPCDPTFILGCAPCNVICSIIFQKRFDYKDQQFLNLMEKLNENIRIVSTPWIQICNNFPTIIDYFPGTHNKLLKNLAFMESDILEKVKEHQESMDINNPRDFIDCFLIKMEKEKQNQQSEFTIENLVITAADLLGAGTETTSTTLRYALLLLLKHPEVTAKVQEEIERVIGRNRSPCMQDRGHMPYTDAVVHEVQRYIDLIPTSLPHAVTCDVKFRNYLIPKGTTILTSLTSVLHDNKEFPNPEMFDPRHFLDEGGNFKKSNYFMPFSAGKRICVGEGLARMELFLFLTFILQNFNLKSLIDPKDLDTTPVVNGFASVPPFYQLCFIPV
Chain of Cytochrome P450 2D6 (P10635 whole entry): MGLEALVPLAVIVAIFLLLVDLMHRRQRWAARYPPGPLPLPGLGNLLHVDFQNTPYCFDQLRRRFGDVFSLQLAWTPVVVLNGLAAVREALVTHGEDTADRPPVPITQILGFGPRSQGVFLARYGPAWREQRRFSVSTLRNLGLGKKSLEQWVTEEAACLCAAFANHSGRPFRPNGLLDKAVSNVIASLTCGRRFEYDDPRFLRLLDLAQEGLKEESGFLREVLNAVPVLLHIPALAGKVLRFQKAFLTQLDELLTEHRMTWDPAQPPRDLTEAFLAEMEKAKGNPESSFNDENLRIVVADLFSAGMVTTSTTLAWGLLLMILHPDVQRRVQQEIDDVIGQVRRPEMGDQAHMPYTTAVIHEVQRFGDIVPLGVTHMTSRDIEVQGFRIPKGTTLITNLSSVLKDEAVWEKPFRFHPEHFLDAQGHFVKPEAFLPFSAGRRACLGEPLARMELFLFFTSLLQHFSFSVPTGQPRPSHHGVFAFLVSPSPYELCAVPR

Compound Cc1nnc(C(C)C)n1[C@@H]1C[C@H]2CC[C@@H](C1)N2CC[C@H](NC(=O)C1CCCC1)c1cccs1 has an IC50 [1] of 1.6 nM, an IC50 (Cytochrome P450 2D6) of 16800 nM and a Cmax [2] of 2220 ng/mL. The Tmax [3] was 48 min, the bioavailability [4] was 38.1% and the IC50 [5] was 21 nM. For the same compound, the half-life [6] was 78.6 min, the half-life [7] was 54 min and the IC50 [8] was 127 nM. The IC50 (Cytochrome P450 2C19) was > 25000 nM, the IC50 [9] was 190 nM and the AUC(0-inf) [10] was 2500 ng·h/mL. For the same compound, the AUC(0-inf) [11] was 1100 ng·h/mL, the IC50 [12] was 1520 nM and the half-life [13] was 150 min. The IC50 (Cytochrome P450 3A4 [14]) was > 25000 nM, the clearance [15] was 46.7 mL/min/kg and the bioavailability [16] was 33.4%. The Cmax [17] was 1160 ng/mL, the Cmax [18] was 436 ng/mL and the selectivity ratio (in vitro [19]) was > 150000. The AUC(0-inf) [20] was 2160 ng·h/mL, the MRT [21] was 181 min and the IC50 (Cytochrome P450 3A4 [22]) was > 25000 nM. For the same compound, the selectivity ratio (in vitro [23]) was 4000, the selectivity ratio (in vitro [24]) was 220000 and the IC50 [25] was 1.3 nM. It also gave an MRT [26] of 144 min, an AUC(0-inf) [27] of 1670 ng·h/mL and an IC50 [28] of 123 nM. It also gave an MRT [29] of 54.6 min, a selectivity ratio (in vitro [30]) of 6100 and a Tmax [31] of 15 min. The selectivity ratio (in vitro [32]) was 330000, the selectivity ratio (in vitro [33]) was 5900 and the CC50 at 48 h [34] was > 200000 nM. The half-life [35] was 99 min, the IC50 [36] was 3.1 nM and the IC50 (Cytochrome P450 1A2) was > 25000 nM. The selectivity ratio (in vitro [37]) was 25000, the IC50 [38] was 3.4 nM and the clearance [39] was 66.5 mL/min/kg. The Tmax [40] was 120 min, the MRT [41] was 42 min and the IC50 (Cytochrome P450 2C9) was > 25000 nM.
Cc1nnc(C(C)C)n1[C@@H]1C[C@H]2CC[C@@H](C1)N2CC[C@H](NC(=O)C1CCCCC1)c1cccs1 showed an IC50 [1] of 12.5 nM, an IC50 (Cytochrome P450 2D6) of 15100 nM and a Cmax [2] of 4320 ng/mL. It also gave an IC50 [5] of 43.7 nM, a half-life [6] of 18.6 min and an IC50 [8] of 464 nM. For the same compound, the IC50 (Cytochrome P450 2C19) was > 25000 nM, the IC50 [9] was 504 nM and the AUC(0-inf) [10] was 5110 ng·h/mL. It also gave an IC50 [12] of 2060 nM, an IC50 (Cytochrome P450 3A4 [14]) of 12300 nM and a bioavailability [16] of 14.8%. The Cmax [18] was 631 ng/mL, the selectivity ratio (in vitro [19]) was > 18000 and the MRT [21] was 126 min. The IC50 (Cytochrome P450 3A4 [22]) was 21700 nM, the selectivity ratio (in vitro [23]) was 529 and the selectivity ratio (in vitro [24]) was 44000. The IC50 [25] was 11.1 nM, the AUC(0-inf) [27] was 1510 ng·h/mL and the IC50 [28] was 524 nM. The MRT [29] was 48 min, the selectivity ratio (in vitro [30]) was 509 and the Tmax [31] was 15 min. For the same compound, the selectivity ratio (in vitro [32]) was 27000, the selectivity ratio (in vitro [33]) was 575 and the CC50 at 48 h [34] was > 200000 nM. For the same compound, the half-life [35] was 69.6 min, the IC50 [36] was 2.3 nM and the IC50 (Cytochrome P450 1A2) was > 25000 nM. It also gave a selectivity ratio (in vitro [37]) of 7800, an IC50 [38] of 8.2 nM and a clearance [39] of 32.7 mL/min/kg. For the same compound, the Tmax [40] was 15 min and the IC50 (Cytochrome P450 2C9) was > 25000 nM.
